Laboratory results taken from article PMC6943423, “Structure-Activity Study of an All-D Antimicrobial Octapeptide D2D” (Molecules, 2019).
Square brackets hold non-standard residues; d marks the D form. Peptide text beside a SMILES is read from it. d1Nal = N[C@H](Cc1cccc2ccccc12)C(=O)O; dNle = CCCC[C@@H](N)C(=O)O

Tests used:
[1] = Peptide self-assembly nanostructure in solution by SAXS; format: physicochemical; conditions: for nanostructure in solution (self-assembly, SAXS model): lab SAXS, 50 mM Tris buffer pH 7.4, 2.5–10 mg/mL, ambient temperature; on cross section of the nanotubes: values in Å
Procedure: SAXS experiments of D2D and the alanine-scan (compounds 1–8) were performed using a Bruker NANOSTAR equipped with a microfocus X-ray source (IμS Cu, InCoatec, Germany) and a VÅNTEC-2000 detector. Raw scattering data was calibrated to absolute intensity scale using water as a primary standard and radially averaged in order to obtain the 1D scattered intensity profile as a function of the scattering vector q (q = 4 π sin (θ/2)/λ), where θ is the scattering angle and λ is the X-ray wavelength of 1.54 Å. The samples were dissolved in 50 mM Tris buffer, pH 7.4 (10 mg/mL, 5 mg/mL and 2.5 mg/mL) and injected manually into a temperature-controlled quartz cell located in a vacuum chamber and measured for 180 min.
The scattering of the peptide D2D was analysed using a random polymer-like chain model:(1) Ichain(q)=ϕ·Vp·Δρ^2·Pchain(q) where ϕ is the volume fraction of the peptide, Vp is the volume of the polymer, Δρ is the excess scattering length density and Pchain(q) is the form factor of the free peptide chains given by the Debye expression for Gaussian chains:(2) gPchain(q)=2·exp[−(qRg)^2]−1+(qRg)^2/(qRg)^4 where Rg is the radius gyration of the peptide chains.
The scattering for compounds 2 and 7 was analysed using a rectangular sheet like model:(3) Isheet(q)=ϕ·Vp·Δρ^2·Np·Psheet(q)
Under the assumption that the length of the peptide sheets are much greater than the lateral dimension, i.e., c >> a, b, the form factor Psheet(q) is given by (4) Psheet(q)=Fc(q)1/2π∫02πAsheet(q, α)^2dα where the amplitude is given by (5) Asheet(q,α)=sin(qb cos(α)/2)/qb cos(α)/2· sin(qa sin(α)/2) /qa sin(α)/2) and (6) Fc(q)=(2 Si(qc)/(qc)−4 sin^2(qc/2)/(qc)^2 where Si(x)=∫0xt^−1sint dt .
The expression for the absolute scattering intensity, from this structure can be written as:(7) Inanotube(q)=ϕ·P·Vtot·Δρ^2·P(q)L·A(q)cs2·DW(q) where ϕ is the volume fraction of the peptide, P is the aggregation number given by P π(Ro2−Ri2)L/Vp where Vp is the volume of a peptide chain, Ro is the outer radius and Ri is the inner radius of the tubes, and L is the length. A(q)cs2 is given by:(8) A(q)cs2=Ro2A(q,Rc)−Rin2A(q,Ri)/(Ro2−Ri2) where A(q,x)=2J1(q·x)/(q·x) and J1(x) is the first order Bessel function.
The longitudinal form factor P(q)L is given by:(9) P(q)L=2 Si(QL)/QL −4 sin(sin^2(QL/2)/(QL)^2 where L is the length of the nanotubes and Si(x) is the Sine-function.
In addition, we introduced a slight distribution in the inner radius for possible shape fluctuations, and a Debye Waller factor, DW(q) = exp(−q^2 σ^2), describing possible surface roughness of the inner and outer wall.

human red blood cells = assay: Hemolytic activity; format: cell-based; conditions: red cells of human, 1 h, 150
Procedure: The percentage of hemolysis at 150 μM was determined for all compounds as previously described. Briefly, two-fold serial dilutions (2.35 to 150 μM) of compounds in PBS were mixed with a 0.5% v/v suspension of fresh human red blood cells (RBC) in the same buffer. After 1 h incubation at 37 °C, plates were centrifuged and aliquots of the supernatants were transferred to clear ELISA plates. Absorbance at 414 nm was determined and normalised with respect to a negative (PBS, 0%) and positive (melittin, 100%) control.

Row | Structure (SMILES) | nanostructure in solution (self-assembly, SAXS model) [1] | %H (% Hemolysis at 150 µM) (human red blood cells) | cross section of the nanotubes ([1]; SAXS nanotube model fit, 50 mM Tris pH 7.4)
1 | CCCC[C@@H](NC(=O)[C@@H](CCCCN)NC(=O)[C@@H](Cc1cccc2ccccc12)NC(=O)[C@@H](CCCCN)NC(=O)[C@@H](Cc1ccccc1)NC(=O)[C@@H](C)NC(=O)[C@@H](CCCCN)NC(=O)[C@H](N)CCCCN)C(N)=O [Compound 3, kkafk(1-nal)k(nle)-NH2] (HELM PEPTIDE1{[dK].[dK].[dA].[dF].[dK].[O=C([C@@H](Cc1cccc2ccccc12)N[*:1])[*:2]].[dK].[CCCC[C@@H](N[*:1])C(=O)[*:2]].[am]}$$$$V2.0) | random polymer-like chains | 2% | –
2 | CCCC[C@@H](NC(=O)[C@@H](CCCCN)NC(=O)[C@@H](C)NC(=O)[C@@H](CCCCN)NC(=O)[C@@H](Cc1ccccc1)NC(=O)[C@@H](Cc1cccc2ccccc12)NC(=O)[C@@H](CCCCN)NC(=O)[C@H](N)CCCCN)C(N)=O [Compound 6, kk(1-nal)fkak(nle)-NH2] (HELM PEPTIDE1{[dK].[dK].[O=C([C@@H](Cc1cccc2ccccc12)N[*:1])[*:2]].[dF].[dK].[dA].[dK].[CCCC[C@@H](N[*:1])C(=O)[*:2]].[am]}$$$$V2.0; N-terminus assumed) | random polymer-like chains | 10% | –
3 | C[C@@H](NC(=O)[C@@H](CCCCN)NC(=O)[C@@H](Cc1cccc2ccccc12)NC(=O)[C@@H](CCCCN)NC(=O)[C@@H](Cc1ccccc1)NC(=O)[C@@H](Cc1cccc2ccccc12)NC(=O)[C@@H](CCCCN)NC(=O)[C@H](N)CCCCN)C(N)=O [Compound 8, kk(1-nal)fk(1-nal)ka-NH2] (HELM PEPTIDE1{[dK].[dK].[O=C([C@@H](Cc1cccc2ccccc12)N[*:1])[*:2]].[dF].[dK].[O=C([C@@H](Cc1cccc2ccccc12)N[*:1])[*:2]].[dK].[dA].[am]}$$$$V2.0; N-terminus assumed) | random polymer-like chains | 5% | –
4 | CCCC[C@@H](NC(=O)[C@@H](CCCCN)NC(=O)[C@@H](Cc1cccc2ccccc12)NC(=O)[C@@H](CCCCN)NC(=O)[C@@H](Cc1ccccc1)NC(=O)[C@@H](Cc1cccc2ccccc12)NC(=O)[C@@H](CCCCN)NC(=O)[C@@H](C)N)C(N)=O [Compound 1, ak(1-nal)fk(1-nal)k(nle)-NH2] (H-[dA][dK][d1Nal][dF][dK][d1Nal][dK][dNle]-NH2) | random polymer-like chains | 41% | –
5 | CCCC[C@@H](NC(=O)[C@@H](CCCCN)NC(=O)[C@@H](Cc1cccc2ccccc12)NC(=O)[C@@H](CCCCN)NC(=O)[C@@H](Cc1ccccc1)NC(=O)[C@@H](Cc1cccc2ccccc12)NC(=O)[C@@H](C)NC(=O)[C@H](N)CCCCN)C(N)=O [Compound 2, ka(1-nal)fk(1-nal)k(nle)-NH2] (H-[dK][dA][d1Nal][dF][dK][d1Nal][dK][dNle]-NH2) | larger filament like structures | 59% | 14 Å
6 | CCCC[C@@H](NC(=O)[C@@H](CCCCN)NC(=O)[C@@H](Cc1cccc2ccccc12)NC(=O)[C@@H](Cc1cccc2ccccc12)NC(=O)[C@@H](Cc1ccccc1)NC(=O)[C@@H](Cc1cccc2ccccc12)NC(=O)[C@@H](CCCCN)NC(=O)[C@H](N)CCCCN)C(N)=O [Compound 9, kk(1-nal)f(1-nal)(1-nal)k(nle)-NH2] (H-[dK][dK][d1Nal][dF][d1Nal][d1Nal][dK][dNle]-NH2; N-terminus assumed) | – | 20% | –
7 | NCCCC[C@@H](N)C(=O)N[C@H](CCCCN)C(=O)N[C@H](Cc1cccc2ccccc12)C(=O)N[C@H](Cc1ccccc1)C(=O)N[C@H](CCCCN)C(=O)N[C@H](Cc1cccc2ccccc12)C(=O)N[C@H](CCCCN)C(N)=O [Compound 30, kk(1-nal)fk(1-nal)k-NH2] (HELM PEPTIDE1{[dK].[dK].[O=C([C@@H](Cc1cccc2ccccc12)N[*:1])[*:2]].[dF].[dK].[O=C([C@@H](Cc1cccc2ccccc12)N[*:1])[*:2]].[dK].[am]}$$$$V2.0; N-terminus assumed) | – | 11% | –
8 | CCCC[C@@H](NC(=O)[C@@H](CCCCN)NC(=O)[C@@H](Cc1cccc2ccccc12)NC(=O)[C@@H](CCCCN)NC(=O)[C@@H](C)NC(=O)[C@@H](Cc1cccc2ccccc12)NC(=O)[C@@H](CCCCN)NC(=O)[C@H](N)CCCCN)C(N)=O [Compound 4, kk(1-nal)ak(1-nal)k(nle)-NH2] (H-[dK][dK][d1Nal][dA][dK][d1Nal][dK][dNle]-NH2; N-terminus assumed) | random polymer-like chains | 22% | –
9 | CCCC[C@@H](NC(=O)[C@@H](CCCCN)NC(=O)[C@@H](Cc1cccc2ccccc12)NC(=O)[C@@H](CCCCN)NC(=O)[C@@H](Cc1ccccc1)NC(=O)[C@H](N)Cc1cccc2ccccc12)C(N)=O [Compound 28, (1-nal)fk(1-nal)k(nle)-NH2] (H-[d1Nal][dF][dK][d1Nal][dK][dNle]-NH2; N-terminus assumed) | – | 62% | –
10 | CCCC[C@@H](NC(=O)[C@@H](CCCCN)NC(=O)[C@@H](Cc1cccc2ccccc12)NC(=O)[C@@H](CCCCN)NC(=O)[C@@H](Cc1ccccc1)NC(=O)[C@@H](Cc1cccc2ccccc12)NC(=O)[C@@H](CCCCN)NC(=O)[C@H](N)CCCNC(=N)N)C(N)=O [Compound 33, rk(1-nal)fk(1-nal)k(nle)-NH2] (H-[dR][dK][d1Nal][dF][dK][d1Nal][dK][dNle]-NH2) | – | 60% | –
11 | CCCC[C@@H](NC(=O)[C@H](NC(=O)[C@@H](Cc1cccc2ccccc12)NC(=O)[C@@H](CCCCN)NC(=O)[C@@H](Cc1ccccc1)NC(=O)[C@@H](Cc1cccc2ccccc12)NC(=O)[C@@H](CCCCN)NC(=O)[C@H](N)CCCCN)C(C)C)C(N)=O [Compound 24, kk(1-nal)fk(1-nal)v(nle)-NH2] (H-[dK][dK][d1Nal][dF][dK][d1Nal][dV][dNle]-NH2; N-terminus assumed) | – | 50% | –
12 | CCCC[C@@H](NC(=O)[C@@H](CCCCN)NC(=O)[C@@H](Cc1cccc2ccccc12)NC(=O)[C@@H](Cc1ccc(O)cc1)NC(=O)[C@@H](Cc1ccccc1)NC(=O)[C@@H](Cc1cccc2ccccc12)NC(=O)[C@@H](CCCCN)NC(=O)[C@H](N)CCCCN)C(N)=O [Compound 15, kk(1-nal)fy(1-nal)k(nle)-NH2] (H-[dK][dK][d1Nal][dF][dY][d1Nal][dK][dNle]-NH2; N-terminus assumed) | – | 40% | –
13 | CCCC[C@@H](NC(=O)[C@@H](C)NC(=O)[C@@H](Cc1cccc2ccccc12)NC(=O)[C@@H](CCCCN)NC(=O)[C@@H](Cc1ccccc1)NC(=O)[C@@H](Cc1cccc2ccccc12)NC(=O)[C@@H](CCCCN)NC(=O)[C@H](N)CCCCN)C(N)=O [Compound 7, kk(1-nal)fk(1-nal)a(nle)-NH2] (H-[dK][dK][d1Nal][dF][dK][d1Nal][dA][dNle]-NH2) | larger filament like structures | 67% | –
